Measurements taken from patent US20240002326A1, “COMPOUNDS AND USE THEREOF IN METHODS OF TREATMENT” (The University of Queensland, priority 2016, published 2024).

Tests used:
[1] = Critical micelle concentration (CMC) assay; format: physicochemical; conditions: threshold concentration of micelle formation in 200 mM NaCl or FP buffer
Method: Critical micelle concentration was determined based on the incorporation of fluorescent 1,6-diphenyl-1,3,5-hexatriene (DPH) into micelles (Chattopadhyay and London, 1984). Small molecules and positive controls (neutral detergent Triton X100 and anionic detergent SDS) were cascade diluted in low binding 96-well plates from 1000 μM to 0.1 μM. Dilutions were performed in 200 mM NaCl or FP buffer. DPH was supplemented at 5 μM into black 384-well plates. Fluoresence intensity (λexc=360 nm, λem=430 nm) was measured following a 30-min incubation at room temperature, to graphically estimate CMC transition.

COS-7 cells = assay: Cytotoxicity assay (Alamar blue), COS-7; format: cell-based, Monkey; conditions: COS7, 24 h; read-out: In vitro cytotoxicity CC50 ± SD COS7
Method: (§1) Cell toxicity was determined using Alamar blue, as previously described (McMillian et al., 2002). COS-7 cells were seeded as 7000 cells per well in black wall clear bottom 96-well plates in DMEM medium (Life Technologies Australia) with 10% FBS. HepG2 and HEK293 cell lines, from ATCC, were seeded as 5000 cells per well in black wall clear bottom 384-well cell culture plates in DMEM with 1% FBS. Cells were cultured for 24 h at 37° C., 5% CO2. A serial dilution of compounds was added, with a final DMSO concentration adjusted to 0.5% v/v. Cells were incubated for another 24 h. 1 Triton X-100 was used as negative control, and 0.5% DMSO as positive control. 5 μM Alamar blue was added to each well and fluorescence was measured (λexc=560 nm, λem=590 nm) after 2 h incubation at 37° C. Data were analysed using Prism software.

ovine COX1 = ovine COX1 (Ovis aries (Sheep), UniProt P05979); assay: COX1 enzymatic assay; format: biochemical; conditions: up to a concentration of 200 μM
Method: (§2) COX inhibition activity was measured using COX1 and COX2 inhibitor screening assay kits from Cayman Chemical Company (Ref #701090 and 701080). All compounds were tested in quadruplicate at a single 200 μM concentration in 2% v/v final DMSO. Compounds were preincubated with ovine COX1 or human COX2 at 37° C. for 10 min before incubation with COX substrate arachidonic acid for another 3 min. Reactions were stopped by addition of concentrated hydrochloric acid. Prostanoid standard curve was prepared and enzyme immunoassay performed as per manufacturer's description. […] Prostanoid standards values were plotted as logit (B/B0) versus log concentrations and fitted with linear regression using GraphPad Prism version 6.0. Standard curve linear fit was used to calculate each samples concentrations.

human COX2 = human COX2 (Homo sapiens (Human), UniProt P35354); assay: COX2 enzymatic assay; format: biochemical; conditions: up to a concentration of 200 μM
Method: as §2

mouse SOX18-HMG (109aa) = mouse SOX18-HMG (109aa) (Mus musculus (Mouse), UniProt P43680); assay: Direct protein binding assay (thermal aggregation, static light scattering); conditions: 500 μM for Sm4 and Sm14, 1.5 mM for Sm5
[2] = Cytotoxicity assay (Alamar blue), COS-7; format: cell-based, Monkey; conditions: chlorocebus aethiops, COS-7 cells; COS7, 24 h; read-out: In vitro cytotoxicity CC50 ± SD COS7
Method: as §1

SOX18-MEF2C interaction = SOX18-MEF2C interaction (Homo sapiens (Human), UniProt P35713); assay: ALPHAScreen SOX18-MEF2C protein-protein interaction; format: binding; conditions: read-out: SOX18-MEF2C interaction disruption IC50
Source text: Proteins were genetically encoded with enhanced GFP (GFP), mCherry and cMyc (myc) tags, and cloned into cell free expression Gateway destination vectors: N-terminal GFP tagged (pCellFree_G03), N-terminal Cherry-cMyc (pCellFree_G07) and C-terminal Cherry-cMyc tagged (pCellFree_G08) (Gagoski et al., 2015). Human RBPJ (BC020780) and MEF2C (BC026341) Open Reading Frames (ORFs) were sourced from the Human ORFeome collection, version 1.1 and 5.1, and the Human Orfeome collaboration OCAA collection (Open Biosystems), as previously described (Sierecki et al., 2013) and cloned at the ARVEC facility, UQ Diamantina Institute. […]
ALPHAScreen was performed as previously described (Sierecki et al., 2014, Sierecki et al., 2013). […] Percentage of interaction was calculated as: (I_cpd/I_DMSO)×100 from 3 independent experiments.
ALPHAScreen was performed as previously described (Sierecki et al., 2014, Sierecki et al., 2013), using the cMyc detection kit and Proxiplate-384 Plus plates (PerkinElmer). […] The ALPHAScreen signal was measured on an Envision Plate Reader (PerkinElmer), using manufacturer's recommended settings (λexc=680/30 nm for 0.18 s, λem=570/100 nm after 37 ms). […]
I is the highest signal level (top of the hook effect curve) and Ineg is the lowest (background) signal level. […] Percentage of interaction was calculated as: […]

ovine COX1, sequence (P05979 25-600): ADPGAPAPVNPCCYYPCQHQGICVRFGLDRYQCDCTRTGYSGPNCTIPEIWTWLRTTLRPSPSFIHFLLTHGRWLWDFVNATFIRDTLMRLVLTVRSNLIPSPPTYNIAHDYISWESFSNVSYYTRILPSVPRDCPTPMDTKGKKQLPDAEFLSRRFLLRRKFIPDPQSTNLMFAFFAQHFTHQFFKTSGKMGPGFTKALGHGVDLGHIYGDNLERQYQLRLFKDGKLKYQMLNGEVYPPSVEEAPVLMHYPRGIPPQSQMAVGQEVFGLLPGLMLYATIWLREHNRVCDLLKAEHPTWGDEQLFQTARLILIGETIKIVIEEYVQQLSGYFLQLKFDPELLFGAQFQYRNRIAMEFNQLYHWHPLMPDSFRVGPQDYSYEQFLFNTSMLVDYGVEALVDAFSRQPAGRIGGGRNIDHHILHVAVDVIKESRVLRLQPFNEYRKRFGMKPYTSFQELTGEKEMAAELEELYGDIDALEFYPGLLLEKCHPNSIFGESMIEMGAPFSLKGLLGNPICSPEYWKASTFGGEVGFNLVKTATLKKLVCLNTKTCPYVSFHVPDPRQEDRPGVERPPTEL
mouse SOX18-HMG (109aa), sequence (P43680 69-177): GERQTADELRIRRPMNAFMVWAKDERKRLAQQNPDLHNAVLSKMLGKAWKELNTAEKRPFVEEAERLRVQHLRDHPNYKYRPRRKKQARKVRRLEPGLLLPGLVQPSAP
human COX2, sequence (P35354 18-604): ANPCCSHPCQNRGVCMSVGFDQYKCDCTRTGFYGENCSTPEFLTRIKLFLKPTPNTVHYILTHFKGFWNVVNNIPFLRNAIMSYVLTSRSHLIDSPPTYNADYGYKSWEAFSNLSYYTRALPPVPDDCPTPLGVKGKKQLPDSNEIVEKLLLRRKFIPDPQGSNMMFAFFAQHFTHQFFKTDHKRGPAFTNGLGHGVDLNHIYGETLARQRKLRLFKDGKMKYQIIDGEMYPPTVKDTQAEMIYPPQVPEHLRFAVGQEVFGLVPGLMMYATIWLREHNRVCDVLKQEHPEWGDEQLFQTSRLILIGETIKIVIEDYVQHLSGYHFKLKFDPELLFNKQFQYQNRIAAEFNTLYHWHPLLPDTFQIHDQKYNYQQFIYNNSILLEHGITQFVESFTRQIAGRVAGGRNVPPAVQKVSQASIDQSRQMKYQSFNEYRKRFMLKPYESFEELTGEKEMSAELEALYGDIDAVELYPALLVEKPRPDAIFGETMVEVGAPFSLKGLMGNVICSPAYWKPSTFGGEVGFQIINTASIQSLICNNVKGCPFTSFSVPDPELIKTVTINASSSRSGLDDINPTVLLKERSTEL
SOX18-MEF2C interaction, sequence (P35713 whole entry): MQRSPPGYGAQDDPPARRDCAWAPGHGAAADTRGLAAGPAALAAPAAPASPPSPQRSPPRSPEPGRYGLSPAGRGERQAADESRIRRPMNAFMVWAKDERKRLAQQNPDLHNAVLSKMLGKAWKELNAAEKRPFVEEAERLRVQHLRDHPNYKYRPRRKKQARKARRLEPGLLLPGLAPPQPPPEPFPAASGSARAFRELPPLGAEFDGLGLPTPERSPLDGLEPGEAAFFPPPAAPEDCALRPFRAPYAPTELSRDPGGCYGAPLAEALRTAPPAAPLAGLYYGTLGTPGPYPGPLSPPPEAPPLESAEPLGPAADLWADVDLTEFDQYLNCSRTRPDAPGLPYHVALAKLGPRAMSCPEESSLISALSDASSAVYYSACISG

Row | CMC [1] | increase in Tagg (mouse SOX18-HMG (109aa)) | SMILES | CC50 (COS-7 cells) | COX-1 inhibitory activity (ovine COX1) | COX-2 inhibitory activity (human COX2) | CC50 at 24 h [2] | IC50 (SOX18-MEF2C interaction)
1 | >1000 µM | more than 3 °C | O=C(O)c1c(O)cccc1COCCc1ccccc1 [Sm5] | > 200 µM | None of the SOX18 inhibitor display any COX-1 or COX-2 inhibitory activity | None of the SOX18 inhibitor display any COX-1 or COX-2 inhibitory activity | – | –
2 | – | – | O=C(O)c1ccccc1Nc1cccc(C(F)(F)F)c1 [Flufenamic acid, reference compound] | – | – | – | 65 ± 2.7 µM | 29.1 µM
